Columns and labels:
liver [1] = experiment: Organ preservation test: hepatic histopathological change after preservation at 4° C.; parameters: species or system SD rats; settings: additives in UW solution, score 0 to 3.0 per sample
Procedure: The formulations of preserving solutions containing UW solution, and a combination of quercetin and sugar were evaluated using a hepatic histopathological change as an index.
Williams solution only, Williams solution containing only quercetin (10 μg/mL), Williams solution containing only fructose (0.2M), Williams solution containing only sucrose (0.1M), Williams solution containing quercetin (10 μg/mL) and fructose (0.2M), or Williams solution containing quercetin (10 μg/mL) and sucrose (0.1M) was used as an organ perfusion solution. Subsequently, as an organ preserving solution, UW solution only, UW solution containing only quercetin (10 μg/mL), UW solution containing only fructose (0.2M), UW solution containing only sucrose (0.1M), UW solution containing quercetin (10 μg/mL) and fructose (0.2M) or UW solution containing quercetin (10 μg/mL) and sucrose (0.1M) was used.
SD rats (male, body weight=264.1 g to 317.2 g) were injected with heparin from the portal vein under anesthesia. Thereafter, they were perfused with a physiological saline solution (8 cmH2O, about 100 mL) at room temperature, and then perfused with each organ perfusion solution (8 cmH2O, about 100 mL) at room temperature. Thereafter, the liver was excised, immersed in 20 mL of each organ preserving solution, and preserved at 4° C. 1 day after and 2 days after the preservation was started, all liver samples were immobilized using a 10% phosphate buffer formalin aqueous solution, and embedded in paraffin according to the standard method. Each sample was sliced into about 6 μm and a hematoxylin-eosin staining sample was prepared, followed by microscopic examination. The degrees of the observed histopathological change were converted to scores as shown below, and summed as cumulative values.
Score 0: no change was observed, Score 0.5: slight change was observed, Score 1.0: small change was observed, Score 2.0: intermediate change was observed, Score 3.0: great change was observed.

liver [2] = experiment: Organ preservation test: rat liver preserved at 4° C., ALT in organ immersion solution; parameters: species or system SD rats; settings: additives in UW solution, liver at 4° C., mean of n=3 ± SD
Procedure: The protective action of a preserving solution for organs or tissue used in organ transplantation or tissue transplantation was assumed, and formulations of preservative solutions containing UW solution, and a combination of quercetin and sugar were evaluated using liver damage degree as an index. Williams solution (GIBCO, No. 12551-032) only, Williams solution containing quercetin (Sigma-Aldrich, 337951-25G) (10 μg/mL), Williams solution containing quercetin (10 μg/mL) and fructose (0.05M to 0.4M) (Kanto Chemical Co., Inc., Code No. 16065-00) (0.05M to 0.4M), or Williams solution containing quercetin (10 μg/mL) and sucrose (0.025M to 0.2M) (Nacalai Tesque, Inc., Code No. 30404-45) (0.025M to 0.2M) was used as an organ perfusion solution. Subsequently, UW solution (VSP1000, […] (cold storage solution) 1000 mL: Astellas Pharma Inc.) only, UW solution containing quercetin (10 μg/mL), UW solution containing quercetin (10 μg/mL) and fructose (0.05M to 0.4M), or UW solution containing quercetin (10 μg/mL) and sucrose (0.025M to 0.2M) was used as an organ preserving solution. SD rats (male, body weight=255.4 g to 339.0 g) were injected with heparin from the portal vein under anesthesia. Thereafter, they were perfused with a physiological saline solution (8 cmH2O, about 100 mL) at room temperature, and then perfused with each organ perfusion solution (8 cmH2O, about 100 mL) at room temperature. Thereafter, the liver was excised, immersed in 20 mL of each organ preserving solution, and preserved at 4° C. A part of each organ preserving solution was collected at 1 day after, 3 days after, 5 days after, and 7 days after the preservation was started, and ALT (alanine aminotransferase) (IU/L) was measured as an index of the degree of liver damage due to low-temperature preservation. The measured ALT are shown in Tables 1 and 2 (average value of n=3±standard deviation).

[3] = 1 day after preservation at 4° C. was started
[4] = 2 days after preservation at 4° C. was started

| Structure (SMILES) | Histopathological Change: Diffuse Vacuolar Degeneration (Cumulative Score of n = 3) (liver [1]; [3]) | Histopathological Change: Sporadic Single Cell Cloudy Swelling (Cumulative Score of n = 3) (liver [1]; [3]) | Histopathological Change: Sporadic Single Cell Necrosis (Cumulative Score of n = 3) (liver [1]; [3]) | Histopathological Change: Diffuse Vacuolar Degeneration (Cumulative Score of n = 3) (liver [1]; [4]) | Histopathological Change: Sporadic Single Cell Cloudy Swelling (Cumulative Score of n = 3) (liver [1]; [4]) | Histopathological Change: Sporadic Single Cell Necrosis (Cumulative Score of n = 3) (liver [1]; [4]) | ALT Value in Organ Immersion Solution (liver [2]; Table 1, 1 day after) [IU/L] | ALT Value in Organ Immersion Solution (liver [2]; Table 1, 3 days after) [IU/L] | ALT Value in Organ Immersion Solution (liver [2]; Table 1, 5 days after) [IU/L] | ALT Value in Organ Immersion Solution (liver [2]; Table 1, 7 days after) [IU/L] | ALT Value in Organ Immersion Solution (liver [2]; Table 2, 1 day after) [IU/L] | ALT Value in Organ Immersion Solution (liver [2]; Table 2, 3 days after) [IU/L] | ALT Value in Organ Immersion Solution (liver [2]; Table 2, 5 days after) [IU/L] | ALT Value in Organ Immersion Solution (liver [2]; Table 2, 7 days after) [IU/L] |
| --- | --- | --- | --- | --- | --- | --- | --- | --- | --- | --- | --- | --- | --- | --- |
| O=c1c(O)c(-c2ccc(O)c(O)c2)oc2cc(O)cc(O)c12 [Quercetin 10 μg/mL, quercetin] | 3.0 | 1.5 | 0.0 | 3.0 | 2.0 | 0.5 | 65 ± 71 | 90 ± 82 | 98 ± 77 | 117 ± 71 | 62 ± 68 | 108 ± 121 | 126 ± 135 | 148 ± 144 |
| OC[C@H]1O[C@@](CO)(O[C@H]2O[C@H](CO)[C@@H](O)[C@H](O)[C@H]2O)[C@@H](O)[C@@H]1O [0.1M Sucrose, sucrose] | 3.0 | 2.0 | 0.5 | 3.0 | 2.5 | 1.0 |  |  |  |  |  |  |  |  |
| O=C(CO)[C@@H](O)[C@H](O)[C@H](O)CO [0.2M Fructose, fructose] | 2.0 | 2.5 | 1.0 | 1.5 | 1.0 | 0.5 |  |  |  |  |  |  |  |  |

Source: patent US11246309B2, “Preserving agent for organs or tissue and preservation method for organs or tissue” (ISHIHARA SANGYO KAISHA, LTD., priority 2015, dated 2022)
